The source of these data is PMC6273746, “Molecular Mechanism of the Flavonoid Natural Product Dryocrassin ABBA against Staphylococcus aureus Sortase A” (Molecules, 2016).

What all share (type): binding
Assay [1] deals with T1, sortase A (SrtA), V166A-SrtA (Staphylococcus aureus, UniProt Q2FV99, V166A).
T1 construct: SrtA△N59, recombinant, GST tag cleaved
Description: fluorescence quenching (KA); reduced inhibition versus WT in FRET assay at […].

In assay [2] the target is T2, sortase A (SrtA), WT-SrtA (Staphylococcus aureus, UniProt Q2FV99).
T2 construct: SrtA△N59, recombinant, GST tag cleaved
As to the kind of experiment: fluorescence quenching (KA); also FRET inhibition of purified SrtA, IC50 […].

Assay [3] has as its target T3, sortase A (SrtA), V168A-SrtA (Staphylococcus aureus, UniProt Q2FV99, V168A).
T3 construct: SrtA△N59, recombinant, GST tag cleaved
As to the kind of experiment: fluorescence quenching (KA); reduced inhibition versus WT in FRET assay at […].

The term Kd denotes the free concentration of one partner at which half of the binding sites on the other are occupied at equilibrium, for simple one-to-one binding. A higher Kd goes with lower affinity. As to `CCCC(=O)c1c(O)c(CC2=C(O)C(C)(C)C(=O)C(C(C)=O)=C2O)c(O)c(Cc2c(O)c(CC3=C(O)C(C)(C)C(=O)C(C(C)=O)=C3O)c(O)c(C(=O)CCC)c2O)c1O` [ABBA, dryocrassin ABBA], the equilibrium dissociation constant (Kd) in assay [1] was 2300 nM; in assay [2] it was 2180 nM; in assay [3], 2790 nM.
